Laboratory results reported in patent US20100190794A1, “Herbicidally Active Composition” (BASF SE, priority 2007, published 2010).

How the values were obtained:
[1] = system: ECHCG; assay: greenhouse test, pre-emergence treatment; type: in vivo, Echinochloa crus-galli; conditions: Use Example 2
From the text: (§1) The culture containers used were plastic pots containing loamy sand with approximately 3.0% of humus as substrate. The seeds of the test plants were sown separately for each species.
(§2) For the pre-emergence treatment, the active compounds, suspended or emulsified in water, were applied directly after sowing by means of finely distributing nozzles. The containers were irrigated gently to promote germination and growth and subsequently covered with transparent plastic hoods until the plants had rooted. This cover caused uniform germination of the test plants unless this was adversely affected by the active compounds.
(§3) Depending on the species, the plants were kept at 10-25° C. and 20-35° C., respectively. The test period extended over 2 to 4 weeks. During this time, the plants were tended and their response to the individual treatments was evaluated.
(§4) Evaluation was carried out using a scale from 0 to 100. 100 means no emergence of the plants, or complete destruction of at least the above-ground parts, and 0 means no damage or normal course of growth. Good herbicidal activity is given at values of at least 70, and very good herbicidal activity is given at values of at least 85.
(§5) The respective stated components A and B, and if appropriate, C were formulated as a 5% by weight or 10% by weight strength emulsion concentrate or a commercially available formulation of component B was used and, with addition of the amount of solvent system, introduced into the spray liquor used for applying the active compound. In the examples, the solvent used was water.
(§6) The test period extended over 20 or 21 days. During this time, the plants were tended, and their reactions to the treatment with active compound was monitored.
(§7) What was evaluated was the damage by the chemical compositions using a scale of from 0 to 100%, in comparison to the untreated control plants. 0 means no damage, and 100 means complete destruction of the plants.
(§8) In the examples below, using the method of S. R. Colby (1967) “Calculating synergistic and antagonistic responses of herbicide combinations”, Weeds 15, p. 22 ff., the value E, which is expected if the activity of the individual active compounds is only additive, was calculated.
(§9) where X=percent activity using active compound A at an application rate a; Y=percent activity using active compound B at an application rate b; E=expected activity (in %) by A+B at application rates a+b.
(§10) If the value found in experiments is higher than the value E calculated according to Colby, a synergistic effect is present.

[2] = system: SETFA; assay: greenhouse test, pre-emergence treatment; type: in vivo, Setaria faberi
From the text: as §1, §2, §3, §4, §5, §6, §7, §8, §9, §10

[3] = system: DIGSA; assay: greenhouse test, post-emergence treatment; type: in vivo, Digitaria sanguinalis; conditions: Use Example 18
Description: as §1
For the post-emergence treatment, the test plants were grown to a plant height of from 3 to 15 cm, depending on the plant habit, and only then treated with the active compounds which had been suspended or emulsified in water. To this end, the test plants were either sown directly and grown in the same containers, or they were first grown separately as seedlings and transplanted into the test containers a few days prior to treatment.
as §3
Evaluation was carried out using a scale from 0 to 100. 100 means no emergence of the plants, or complete destruction of at least the above-ground parts, and 0 means no damage or normal course of growth. Good herbicidal activity is given at values of at least 70, and very good herbicidal activity is given at values of at least 85. […]
as §6
(§11) What was evaluated was the damage by the chemical compositions using a scale of from 0 to 100%, in comparison to the untreated control plants. […]
(§12) In the examples below, using the method of S. R. Colby (1967) “Calculating synergistic and antagonistic responses of herbicide combinations”, Weeds 15, p. 22 ff., the value E, which is expected if the activity of the individual active compounds is only additive, was calculated. […]
as §10

[4] = system: SETLU; assay: greenhouse test, pre-emergence treatment; type: in vivo, Setaria glauca; conditions: for Herbicidal action in % after 21 days against SETLU: Use Example 9
From the text: as §1, §2, §3, §4, §5, §6, §7, §8, §9, §10

[5] = system: SETVI; assay: greenhouse test, pre-emergence treatment; type: in vivo, Setaria viridis; conditions: 125 g/ha a.s., Use Example 11
From the text: as §1, §2
Depending on the species, the plants were kept at 10-25° C. and 20-35° C., respectively. […] During this time, the plants were tended and their response to the individual treatments was evaluated. […]
as §6, §11, §12

[6] = system: BRAPL; assay: greenhouse test, pre-emergence treatment; type: in vivo, Brachiaria plantaginea
From the text: as §1, §2, §3, §4, §5, §6, §7, §8, §9, §10

[7] = system: ALOMY; assay: greenhouse test, pre-emergence treatment; type: in vivo, Alopecurus myosuroides
From the text: as §1, §2, §3, §4, §5, §6, §7, §8, §9, §10

[8] = system: LAMPU; assay: greenhouse test, pre-emergence treatment; type: in vivo, Lamium purpureum; conditions: 125 g/ha a.s., Use Example 11
From the text: as §1, §2, §3, §4, §5, §6, §7, §8, §9, §10

[9] = system: CCHEC; assay: greenhouse test, pre-emergence treatment; type: in vivo, Cenchrus echinatus
From the text: as §1, §2, §3, §4, §5, §6, §7, §8, §9, §10

CN1C(=O)C(C)(Cc2ccccc2)N(C)C(=O)C1=Cc1ccccc1C#N (stereo not drawn) [Example 20, 2-[5-Benzyl-1,4,5-trimethyl-3,6-dioxopiperazin-2-ylidenemethyl]benzo-nitrile]
Herbicidal action in % after 20 days against ECHCG ([1]; 62.5 g/ha a.s.): 70% | Herbicidal action in % after 20 days against ECHCG ([1]; 125 g/ha a.s.): 95% | Herbicidal action in % after 20 days against ECHCG ([1]; 250 g/ha a.s.): 100% | Herbicidal action in % after 20 days against SETFA ([2]; 125 g/ha a.s., Use Example 12): 45% | Herbicidal action in % after 20 days against SETFA ([2]; 125 g/ha a.s., Use Example 14): 95% | Herbicidal action in % after 20 days against SETFA ([2]; 250 g/ha a.s., Use Example 12): 80% | Herbicidal action in % after 20 days against DIGSA ([3]; 62.5 g/ha a.s.): 45% | Herbicidal action in % after 20 days against DIGSA ([3]; 125 g/ha a.s.): 70% | Herbicidal action in % after 21 days against SETLU ([4]; 125 g/ha a.s.): 90% | Herbicidal action in % after 20 days against SETLU ([4]; 125 g/ha a.s., Use Example 14): 90% | Herbicidal action in % after 21 days against SETLU ([4]; 250 g/ha a.s.): 100% | Herbicidal action in % after 20 days against SETLU ([4]; 250 g/ha a.s., Use Example 16): 98% | Herbicidal action in % after 21 days against SETVI [5]: 80% | Herbicidal action in % after 21 days against BRAPL ([6]; 31.25 g/ha a.s., Use Example 8): 20% | Herbicidal action in % after 20 days against BRAPL ([6]; 125 g/ha a.s., Use Example 5): 70% | Herbicidal action in % after 21 days against BRAPL ([6]; 125 g/ha a.s., Use Example 9): 80% | Herbicidal action in % after 20 days against BRAPL ([6]; 125 g/ha a.s., Use Example 12): 55% | Herbicidal action in % after 20 days against BRAPL ([6]; 250 g/ha a.s., Use Example 5): 85% | Herbicidal action in % after 21 days against BRAPL ([6]; 250 g/ha a.s., Use Example 9): 95% | Herbicidal action in % after 20 days against BRAPL ([6]; 250 g/ha a.s., Use Example 12): 55% | Herbicidal action in % after 20 days against BRAPL ([6]; 250 g/ha a.s., Use Example 16): 85% | Herbicidal action in % after 20 days against ALOMY ([7]; 62.5 g/ha a.s., Use Example 2): 45% | Herbicidal action in % after 20 days against ALOMY ([7]; 125 g/ha a.s., Use Example 2): 55% | Herbicidal action in % after 20 days against ALOMY ([7]; 125 g/ha a.s., Use Example 7): 40% | Herbicidal action in % after 20 days against ALOMY ([7]; 125 g/ha a.s., Use Example 10): 45% | Herbicidal action in % after 20 days against ALOMY ([7]; 125 g/ha a.s., Use Example 13): 45% | Herbicidal action in % after 20 days against ALOMY ([7]; 125 g/ha a.s., Use Example 15): 40% | Herbicidal action in % after 20 days against ALOMY ([7]; 250 g/ha a.s., Use Example 2): 85% | Herbicidal action in % after 20 days against ALOMY ([7]; 250 g/ha a.s., Use Example 4): 85% | Herbicidal action in % after 20 days against ALOMY ([7]; 250 g/ha a.s., Use Example 7): 90% | Herbicidal action in % after 20 days against ALOMY ([7]; 250 g/ha a.s., Use Example 10): 70% | Herbicidal action in % after 20 days against ALOMY ([7]; 250 g/ha a.s., Use Example 13): 70% | Herbicidal action in % after 20 days against ALOMY ([7]; 250 g/ha a.s., Use Example 15): 90% | Herbicidal action in % after 21 days against LAMPU [8]: 75% | Herbicidal action in % after 21 days against CCHEC ([9]; 62.5 g/ha a.s., Use Example 3): 20% | Herbicidal action in % after 20 days against CCHEC ([9]; 250 g/ha a.s., Use Example 16): 90%
